# Test results taken from PubChem BioAssay (NCI).
#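 Grown in 96-well plates, cells were treated for 48 hours with each compound at five concentrations. Insufficient inhibition: endpoint recorded as highest concentration tested. GI50 is the concentration that inhibits growth by half. The concentration for full growth arrest is given as TGI.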
# How the values were obtained:
# Experiment in all cases: NCI anticancer screen, dose series, 48 h
# COLO 205 colon = tested on: COLO 205 colon
# SNB-75 CNS = tested on: SNB-75 CNS
# MOLT-4 leukemia = tested on: MOLT-4 leukemia
# SK-OV-3 ovarian = tested on: SK-OV-3 ovarian
# DU-145 prostate = tested on: DU-145 prostate
# IGROV1 ovarian = tested on: IGROV1 ovarian
# A549 NSCLC = tested on: A549 NSCLC
# HS 578T breast = tested on: HS 578T breast
# NCI-H23 lung = tested on: NCI-H23 lung
# ACHN renal = tested on: ACHN renal
# HOP-62 NSCLC = tested on: HOP-62 NSCLC
# HCC-2998 colon = tested on: HCC-2998 colon
# UACC-257 melanoma = tested on: UACC-257 melanoma
# U251 CNS = tested on: U251 CNS
# KM12 colon = tested on: KM12 colon
# NCI/ADR-RES ovarian = tested on: NCI/ADR-RES ovarian
# SK-MEL-2 melanoma = tested on: SK-MEL-2 melanoma
# MCF7 breast = tested on: MCF7 breast
# RXF 393 renal = tested on: RXF 393 renal
# HOP-92 NSCLC = tested on: HOP-92 NSCLC
# 786-0 renal = tested on: 786-0 renal
# OVCAR-8 ovarian = tested on: OVCAR-8 ovarian
# SK-MEL-5 melanoma = tested on: SK-MEL-5 melanoma
# UACC-62 melanoma = tested on: UACC-62 melanoma
# MALME-3M melanoma = tested on: MALME-3M melanoma
# K-562 leukemia = tested on: K-562 leukemia
# HCT-15 colon = tested on: HCT-15 colon
# EKVX NSCLC = tested on: EKVX NSCLC
# A498 renal = tested on: A498 renal
# HCT-116 colon = tested on: HCT-116 colon
# PC-3 prostate = tested on: PC-3 prostate
# MDA-MB-468 breast = tested on: MDA-MB-468 breast
# SN12C renal = tested on: SN12C renal
# SF-539 CNS = tested on: SF-539 CNS
# OVCAR-4 ovarian = tested on: OVCAR-4 ovarian
# SF-295 CNS = tested on: SF-295 CNS
# HL-60(TB) leukemia = tested on: HL-60(TB) leukemia
# HT29 colon = tested on: HT29 colon
# NCI-H226 lung = tested on: NCI-H226 lung
# SF-268 CNS = tested on: SF-268 CNS
# NCI-H522 lung = tested on: NCI-H522 lung
# BT-549 breast = tested on: BT-549 breast
# MDA-MB-435 = tested on: MDA-MB-435
# LOX IMVI melanoma = tested on: LOX IMVI melanoma
# SK-MEL-28 melanoma = tested on: SK-MEL-28 melanoma
# T-47D breast = tested on: T-47D breast
# NCI-H460 lung = tested on: NCI-H460 lung
# CCRF-CEM leukemia = tested on: CCRF-CEM leukemia
# UO-31 renal = tested on: UO-31 renal
# OVCAR-3 ovarian = tested on: OVCAR-3 ovarian
# RPMI-8226 leukemia = tested on: RPMI-8226 leukemia
# MDA-MB-231 breast = tested on: MDA-MB-231 breast
# OVCAR-5 ovarian = tested on: OVCAR-5 ovarian
# M14 melanoma = tested on: M14 melanoma
# SW-620 colon = tested on: SW-620 colon
# CAKI-1 renal = tested on: CAKI-1 renal
# TK-10 renal = tested on: TK-10 renal
# SNB-19 CNS = tested on: SNB-19 CNS
smiles,measurement,setting,value
Cn1cc(NC(=O)c2cc(NC(=O)c3ccc(/C=C/c4ccccc4)cc3)cn2C)cc1C(=O)NCCCN1CCOCC1,GI50,COLO 205 colon,> 28 µM
same,TGI,COLO 205 colon,> 28 µM
same,GI50,SNB-75 CNS,4.42 µM
same,TGI,SNB-75 CNS,26.3 µM
same,GI50,MOLT-4 leukemia,7.96 µM
same,TGI,MOLT-4 leukemia,> 28 µM
same,GI50,SK-OV-3 ovarian,> 28 µM
same,TGI,SK-OV-3 ovarian,> 28 µM
same,GI50,DU-145 prostate,10.1 µM
same,TGI,DU-145 prostate,> 28 µM
same,GI50,IGROV1 ovarian,> 28 µM
same,TGI,IGROV1 ovarian,> 28 µM
same,GI50,A549 NSCLC,> 28 µM
same,TGI,A549 NSCLC,> 28 µM
same,GI50,HS 578T breast,6.14 µM
same,TGI,HS 578T breast,> 28 µM
same,GI50,NCI-H23 lung,13.4 µM
same,TGI,NCI-H23 lung,> 28 µM
same,GI50,ACHN renal,18.6 µM
same,TGI,ACHN renal,> 28 µM
same,GI50,HOP-62 NSCLC,9.43 µM
same,TGI,HOP-62 NSCLC,> 28 µM
same,GI50,HCC-2998 colon,16.6 µM
same,TGI,HCC-2998 colon,> 28 µM
same,GI50,UACC-257 melanoma,19.2 µM
same,TGI,UACC-257 melanoma,> 28 µM
same,GI50,U251 CNS,10.5 µM
same,TGI,U251 CNS,> 28 µM
same,GI50,KM12 colon,8.07 µM
same,TGI,KM12 colon,> 28 µM
same,GI50,NCI/ADR-RES ovarian,7.31 µM
same,TGI,NCI/ADR-RES ovarian,24.2 µM
same,GI50,SK-MEL-2 melanoma,4.94 µM
same,TGI,SK-MEL-2 melanoma,16.3 µM
same,GI50,MCF7 breast,3.57 µM
same,TGI,MCF7 breast,> 28 µM
same,GI50,RXF 393 renal,2.08 µM
same,TGI,RXF 393 renal,18 µM
same,GI50,HOP-92 NSCLC,3.15 µM
same,TGI,HOP-92 NSCLC,14.9 µM
same,GI50,786-0 renal,8.59 µM
same,TGI,786-0 renal,> 28 µM
same,GI50,OVCAR-8 ovarian,7.21 µM
same,TGI,OVCAR-8 ovarian,> 28 µM
same,GI50,SK-MEL-5 melanoma,14 µM
same,TGI,SK-MEL-5 melanoma,> 28 µM
same,GI50,UACC-62 melanoma,21.2 µM
same,TGI,UACC-62 melanoma,> 28 µM
same,GI50,MALME-3M melanoma,13.8 µM
same,TGI,MALME-3M melanoma,> 28 µM
same,GI50,K-562 leukemia,4.79 µM
same,TGI,K-562 leukemia,16.1 µM
same,GI50,HCT-15 colon,7.41 µM
same,TGI,HCT-15 colon,> 28 µM
same,GI50,EKVX NSCLC,16.6 µM
same,TGI,EKVX NSCLC,> 28 µM
same,GI50,A498 renal,> 28 µM
same,TGI,A498 renal,> 28 µM
same,GI50,HCT-116 colon,7.39 µM
same,TGI,HCT-116 colon,> 28 µM
same,GI50,PC-3 prostate,13 µM
same,TGI,PC-3 prostate,> 28 µM
same,GI50,MDA-MB-468 breast,5.88 µM
same,TGI,MDA-MB-468 breast,18.5 µM
same,GI50,SN12C renal,5.28 µM
same,TGI,SN12C renal,> 28 µM
same,GI50,SF-539 CNS,5.8 µM
same,TGI,SF-539 CNS,16.5 µM
same,GI50,OVCAR-4 ovarian,> 28 µM
same,TGI,OVCAR-4 ovarian,> 28 µM
same,GI50,SF-295 CNS,17.8 µM
same,TGI,SF-295 CNS,> 28 µM
same,GI50,HL-60(TB) leukemia,7.49 µM
same,TGI,HL-60(TB) leukemia,> 28 µM
same,GI50,HT29 colon,4.85 µM
same,TGI,HT29 colon,19.6 µM
same,GI50,NCI-H226 lung,24.1 µM
same,TGI,NCI-H226 lung,> 28 µM
same,GI50,SF-268 CNS,21.5 µM
same,TGI,SF-268 CNS,> 28 µM
same,GI50,NCI-H522 lung,6.56 µM
same,TGI,NCI-H522 lung,25.2 µM
same,GI50,BT-549 breast,4.84 µM
same,TGI,BT-549 breast,18.4 µM
same,GI50,MDA-MB-435,8.59 µM
same,TGI,MDA-MB-435,> 28 µM
same,GI50,LOX IMVI melanoma,4.59 µM
same,TGI,LOX IMVI melanoma,9.32 µM
same,GI50,SK-MEL-28 melanoma,> 28 µM
same,TGI,SK-MEL-28 melanoma,> 28 µM
same,GI50,T-47D breast,5.59 µM
same,TGI,T-47D breast,> 28 µM
same,GI50,NCI-H460 lung,9.62 µM
same,TGI,NCI-H460 lung,> 28 µM
same,GI50,CCRF-CEM leukemia,5.74 µM
same,TGI,CCRF-CEM leukemia,> 28 µM
same,GI50,UO-31 renal,15.2 µM
same,TGI,UO-31 renal,> 28 µM
same,GI50,OVCAR-3 ovarian,6.82 µM
same,TGI,OVCAR-3 ovarian,> 28 µM
same,GI50,RPMI-8226 leukemia,3.35 µM
same,TGI,RPMI-8226 leukemia,> 28 µM
same,GI50,MDA-MB-231 breast,9.18 µM
same,TGI,MDA-MB-231 breast,> 28 µM
same,GI50,OVCAR-5 ovarian,> 28 µM
same,TGI,OVCAR-5 ovarian,> 28 µM
same,GI50,M14 melanoma,14.7 µM
same,TGI,M14 melanoma,> 28 µM
same,GI50,SW-620 colon,6.89 µM
same,TGI,SW-620 colon,18.7 µM
same,GI50,CAKI-1 renal,15.3 µM
same,TGI,CAKI-1 renal,> 28 µM
same,GI50,TK-10 renal,15.1 µM
same,TGI,TK-10 renal,> 28 µM
same,GI50,SNB-19 CNS,> 28 µM
same,TGI,SNB-19 CNS,> 28 µM
